Measurements from patent US6833248B2, “Human caspase-12 materials and methods” (Pharmacia & Upjohn Company, priority 2000, dated 2004).
One block for each molecule: values may come before it. Residues, ends and D or L forms follow the SMILES beside them. *: point of attachment. Cbz = O=C(OCc1ccccc1)*; CH2F = FC*

Legend:
[1] = system: endogenous human caspase-12; experiment: Induction of endogenous caspase-12 protein by ER stress-inducing agents in SH-EP cells (Western blot); type: cell-based
Protocol: Reports in the literature indicated a strong activation of murine caspase-12 in response to agents which induce an endoplasmic reticulum (ER) stress response, such as tunicamycin or the Ca^2+ ionophore A23187. The activation of endogenous human caspase-12 by these ER stress-inducing agents in SH-EP and HEK293 cells was evaluated by Western blot analysis of cell lysates. SH-EP is a neuroblastoma cell line that endogenously expresses human caspase-12 at detectable levels. HEK293 is a transformed kidney cell line that lacks detectable caspase-12.
Cell cultures were treated with 1 μg/ml tunicamycin or 2 μM A23187 (Calbiochem) and harvested over time. Cells were lysed in detergent buffer, cellular proteins resolved on NuPAGE gels and subjected to Western blot analysis using the same antibody as in Example 8A above. […] (BACHEM) for 40 hours.
(§1) The biological significance of caspase-12 up-regulation by the ER stress-inducing agent A23187 in apoptosis was further investigated. SH-EP cells were treated with 2 μM A23187 for 40 hours to induce expression of endogenous caspase-12. One control culture was left untreated. Of the four cultures treated with A23187, one culture received 10 μg/ml cycloheximide (CHX) to block new protein synthesis and two cultures were subjected to an apoptotic stimulus, either 250 ng/ml α-Fas antibody for 24 hours or 1200 microjoules UV irradiation. The cultures were harvested after 6.5 hours. Western blot analysis of caspase-12 expression and activation was done as described above in Example 8A, using similar protein loads for each condition tested.

endogenous caspase-12 = experiment: Caspase-12 cleavage/activation in SH-EP cells subjected to ER stress (Western blot); type: cell-based, human; details: 2 μM A23187 40 hours, harvested 6.5 hours after UV
Protocol: as §1
Additional experiments of were conducted to evaluate the effect of a caspase or calpain inhibitor on SH-EP cells subjected to ER stress. Z-VAD-fmk (Z=benzyloxycarbonyl group at the N-terminus of Val-Ala-DL-Asp(OMe)-fluoromethylketone; BACHEM) is a general caspase inhibitor that inhibits most of the known caspases, to varying extents. Calpeptin is an inhibitor of calpains, a family of calcium-dependent proteases that proteolyze a variety of cellular proteins. […] Caspase activation was evaluated by Western blot using antibodies to caspase-12 as described above in Example 8A. […]

caspase-3 = experiment: Caspase-3 cleavage following UV irradiation in SH-EP cells subjected to ER stress (Western blot); type: cell-based; details: 2 μM A23187 40 hours
calpain II = molecular target: T1, calpain II (Homo sapiens, UniProt P17655); experiment: Calpain II cleavage of human caspase-12 in vitro (Western blot); type: biochemical; details: affinity-purified protein, 0.012 U/μl calpain II activated by 5 mM CaCl2
T1 construct: purchased Calbiochem
T1 sequence (P17655 1-700): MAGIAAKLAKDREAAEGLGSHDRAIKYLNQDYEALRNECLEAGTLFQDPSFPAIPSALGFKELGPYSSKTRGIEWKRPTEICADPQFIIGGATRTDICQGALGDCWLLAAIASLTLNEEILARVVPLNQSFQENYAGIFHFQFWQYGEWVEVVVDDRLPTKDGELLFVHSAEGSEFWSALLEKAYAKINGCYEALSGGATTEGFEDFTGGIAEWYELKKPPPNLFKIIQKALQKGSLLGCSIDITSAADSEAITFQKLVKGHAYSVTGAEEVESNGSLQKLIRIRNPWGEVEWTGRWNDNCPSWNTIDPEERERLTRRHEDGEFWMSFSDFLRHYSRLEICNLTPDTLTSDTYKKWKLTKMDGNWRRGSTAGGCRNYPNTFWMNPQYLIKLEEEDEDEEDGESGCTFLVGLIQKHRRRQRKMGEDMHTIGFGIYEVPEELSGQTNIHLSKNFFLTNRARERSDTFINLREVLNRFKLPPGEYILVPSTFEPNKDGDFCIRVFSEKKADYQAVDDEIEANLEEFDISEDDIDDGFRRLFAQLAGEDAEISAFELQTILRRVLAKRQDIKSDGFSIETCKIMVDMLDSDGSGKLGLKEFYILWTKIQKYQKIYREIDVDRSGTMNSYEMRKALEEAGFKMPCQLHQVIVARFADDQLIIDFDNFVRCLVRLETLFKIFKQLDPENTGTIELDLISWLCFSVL
T1 sequence (P04632 1-268 partner): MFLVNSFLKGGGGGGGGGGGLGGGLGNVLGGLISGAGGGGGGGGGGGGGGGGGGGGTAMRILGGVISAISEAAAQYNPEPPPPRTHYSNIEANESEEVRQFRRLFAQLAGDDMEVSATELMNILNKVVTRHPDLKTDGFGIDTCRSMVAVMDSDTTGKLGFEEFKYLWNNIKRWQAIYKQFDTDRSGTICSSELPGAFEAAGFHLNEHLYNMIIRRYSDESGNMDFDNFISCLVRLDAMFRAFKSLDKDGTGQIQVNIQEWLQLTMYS
Protocol: The relationship between calpain and caspase-12 was explored in vitro as follows. Affinity-purified hCaspase-12 and ΔCARD caspase-12 prepared as described in Example 3B above, were incubated with 0.012 U/μl calpain II (Calbiochem) in solutions containing 150 mM NaCl, 20 mM Tris-HCl, pH 7.5, and 1 mM DTT. Calpain II was activated by the addition of 5 mM CaCl2, while corresponding control cultures were not activated by addition of calcium. Cleavage of human caspase-12 was evaluated by Western blot analysis as described in Example 8A above. […] Thus, the activation and processing of caspase-12 is closely tied to cellular calcium levels. It is anticipated that calpain will process caspase-12 by recognizing the cleavage site “ASADT” at positions 269-272 of hCaspase-12 (SEQ ID NO: 77), with cleavage occurring between residues 271 and 272. Because cellular calcium is an important regulatory feature in health and disease, the signaling pathway to caspase-12 may have multiple branches that can result in activation of this caspase.

DEVD-R110 = experiment: Homogeneous Caspase Assay, fluorimetric, release of rhodamine-110 from DEVD-R110; type: biochemical; details: partially purified protein preparation; two-hour incubation of DEVD-R110 substrate
Description: The enzymatic activity of the partially purified hCaspase-12 and ΔCARD proteins was further evaluated in a fluorimetric assay allowing quantitation. The caspase activity of partially purified hCaspase-12 and ΔCARD protein preparations was compared to a control (non-caspase protein) preparation, using the Homogeneous Caspase Assay (Roche Biochemicals) according to the manufacturer's protocol. The assay measures the amount of free rhodamine-110, following its release from the substrate DEVD-R110, a caspase recognition sequence. Following a two-hour incubation of DEVD-R110 substrate with dilutions of the various protein preparations, free rhodamine-110 was quantitated fluorimetrically. Measured fluorescence intensity (RFU) for each preparation was 807 for hCaspase-12, 445 for ΔCARD, and 31 for the control.

procaspase-3 = experiment: Proteolytic activity using procaspase-3 substrate (Western blot); type: biochemical; details: partially purified preparation, 2 hours at 37° C.; antibody to full-length caspase-3
Protocol: Lysates which contain recombinant caspases produced by expression in E. coli often contain fragments indicative of autoprocessing. Because the autolysis in caspase-12 lysates observed in Example 3B above is indicative of enzymatic activity, the enzymatic activity of partially purified human caspase-12 lysates was evaluated using procaspase-3 as a potential substrate. Caspase-3 is an effector caspase, which is cleaved at Asp175 by initiator caspases-8 and -9 to give the mature 19 kDa and 11 kDa subunits of the active enzyme. Processing of procaspase-3 was evaluated by Western blot analysis using an antibody that binds to full-length caspase-3 and another antibody that binds to the larger B subunit and that is specific for activated enzyme.
For use as a substrate for caspase-12, procaspase-3 was immunoprecipitated from SH-EP cell lysates using an antibody to full-length caspase-3 (Upstate Biotechnology, Inc.) and isolated on Protein G-Plus/Protein A agarose (Oncogene Science). […] Caspase-3 processing/activation by caspase-12 was detected by incubating with an anti-caspase-3 antibody (Upstate Biotechnology) which recognizes all subunits of caspase-3. Following incubation with an anti-rabbit HRP-conjugated antibody (Santa Cruz Biotechnology), immunoreactivity was detected by chemiluminescence using SuperSignal West PICO reagent (Pierce). […]

SH-EP cells = experiment: Cleavage of exogenous hCaspase-12 in transfected SH-EP cells after αFas-antibody induction of the extrinsic cell death pathway (Western blot); type: cell-based; details: 250 ng/ml αFas-antibody for 18 hours
Protocol: The role of hCaspase-12 in cell death pathways was examined using cells of a neuroblastoma cell line, SH-EP. In the extrinsic (or receptor-induced) cell death pathway, caspase-8 is the apical caspase that cleaves effector caspases such as caspase-3, which cleaves many cellular substrates. Caspase activation, indicated by cleavage of the proform of the enzyme in cell lysates, was evaluated by Western blot analysis.
The expression vector pIRES-hrGFP-1a harboring the hCaspase-12 or RIK-5 gene was transfected into SH-EP cells using Superfect transfection reagent (Qiagen). At 24 hours post-transfection, 250 ng/ml αFas-antibody (CH-11, Upstate Biotechnology) was added and incubated for 18 hours to induce the extrinsic cell death pathway. Culture medium and cells were harvested and lysed in detergent buffer. Cleavage of exogenous hCaspase-12 was evaluated by Western blot analysis using anti-human caspase-12 antibody (prepared against peptide WSHHLEEIFQKVQHSFE as described in Example 4).

Molecule: β-amyloid [25-35]: β-amyloid [25-35] (BACHEM) (GSNKGAIIGLM; Amyloid-beta protein 42; UniProt P05067 696-706, looked up, fragment)
Induction of human caspase-12 ([1]; cultures treated with 40 μM β-amyloid [25-35] for 40 hours): induction of human caspase-12 was observed

Molecule: CCCC[C@@H](C=O)NC(=O)[C@H](CC(C)C)NC(=O)OCc1ccccc1 [calpeptin]
Cleavage of procaspase-12 after UV irradiation (endogenous caspase-12; pre-incubated with 10 μM calpeptin 1 hour prior to UV): reduced
Cleavage of caspase-3 following UV irradiation (caspase-3; 10 μM calpeptin): not affected

Molecule: C[C@@H]1C[C@@H]([C@H](O)CC2CC(=O)NC(=O)C2)C(=O)[C@@H](C)C1 [cycloheximide]
A23187-induced expression of caspase-12 ([1]; SH-EP cells, 2 μM A23187 for 40 hours plus 10 μg/ml cycloheximide): inhibited

Molecule: COC(=O)C[C@H](NC(=O)[C@H](C)NC(=O)[C@@H](NC(=O)OCc1ccccc1)C(C)C)C(=O)CF [Z-VAD-fmk] (Cbz-Val-Ala-Asp(OMe)-CH2F)
Cleavage of pro-caspase-12 after UV irradiation (endogenous caspase-12; pre-incubated with 50 μM Z-VAD-fmk 1 hour prior to UV): reduces cleavage
Cleavage of caspase-3 following UV irradiation (caspase-3; 50 μM Z-VAD-fmk): inhibited

Molecule: CNc1ccc2oc(C[C@H]3O[C@@]4(CC[C@H]3C)O[C@H]([C@H](C)C(=O)c3ccc[nH]3)[C@H](C)C[C@H]4C)nc2c1C(=O)O [A23187]
Induction of caspase-12 protein ([1]; SH-EP cells, 2 μM A23187, harvested over time): strong induction
Expression of caspase-12 ([1]; SH-EP cells, 2 μM A23187 for 40 hours): induced

Cleavage by calpain II (calpain II): cleaves
Measured fluorescence intensity (RFU), free rhodamine-110 (DEVD-R110): 807 RFU
B1: hCaspase-12: non-naturally occurring variant human caspase-12 with Ser-205 to Gly mutation (SEQ ID NO: 77), expressed as 6-His fusion protein (protein, listed as Homo sapiens)
chain: MADEKPSNGVLVHMVKLLIKTFLDGIFDDLMENNVLNTDEIHLIGKCLKFVVSNAENLVDDITETAQIAGKIFREHLWNSKKQLSSALLEIQGAQPSGKLKLCPHAHFHELKTKRADEIYPVMEKERRTCLALNIRNKEFNYLHNRNGSELDLLGMRDLLENLGYSVVIKENLTAQEMETALRQFAAHPEHQSSDSTFLVFMSHGILNGICGTKHWDQEPDVLHDDTIFEIFNNRNCQSLKDKPKVIIMQACRGNGAGIVWFTTDSGKASADTHGRLLQGNICNDAVTKAHVEKDFIAFKSSTPHNVSWRHETNGSVFISQIIYYFREYSWSHHLEEIFQKVQHSFETPNILTQLPTIERLSMTRYFYLFPGN
modifications: 6-His tag
Processing of procaspase-3 to mature subunits (procaspase-3): lower molecular weight bands indicative of cleaved mature subunits were observed
Cleavage of exogenous protein in cultures undergoing apoptosis (SH-EP cells): cleaved
